The record followed here is ChEMBL document CHEMBL5325512, “Sub-stoichiometric Modulation of Viral Targets-Potent Antiviral Agents That Exploit Target Vulnerability” (ACS Med Chem Lett, 2023).

Test [1] deals with Human immunodeficiency virus 1. The test can be described thus: Antiviral activity against wild type HIV 1 in presence of human serum albumin. Format: functional, organism-based.
For test [2], the system named is Human immunodeficiency virus 1. As to the kind of experiment: Antiviral activity against HIV 1 harbouring deltaV370 mutant. Format: functional, organism-based.
Test [3] concerns Human immunodeficiency virus 1. The test can be described thus: Antiviral activity against wild type HIV 1 NL4-3. Format: functional, organism-based. Particulars: Human immunodeficiency virus 1, NL4-3.
The subject of test [4] is Human immunodeficiency virus 1. As to the kind of experiment: Antiviral activity against HIV 1 harbouring V370A mutant. Format: functional, organism-based.
The subject of test [5] is Human immunodeficiency virus 1. The test can be described thus: Antiviral activity against HIV 1 harbouring A362T/V362I/V370 mutant. Format: functional, organism-based.
For test [6], the system named is Gag-Pol polyprotein (Human immunodeficiency virus type 1 group M subtype B (isolate HXB2)(HIV-1)), P04585 [V370A]. As to the kind of experiment: Binding affinity to HIV1 Gag V370A mutant assessed as dissociation half life. As to conditions: Human immunodeficiency virus 1.
Test [7] has as its system Human immunodeficiency virus 1. The test can be described thus: Antiviral activity against HIV1 infected in human assessed as reduction in Plasma viremia by measuring HIV1 RNA at 40 mg/kg after 7 days. Format: functional. As to conditions: time 7 day.
Test [8] deals with Human immunodeficiency virus type 1 Gag protein (Human immunodeficiency virus 1) (UniProt Q77YG1). As to the kind of experiment: Binding affinity to HIV1 wild type Gag assessed as dissociation half life.
Test [9] relates to Human immunodeficiency virus 1. As to the kind of experiment: Binding affinity to HIV1 Gag deltaV370A mutant assessed as dissociation half life.
The subject of test [10] is Human immunodeficiency virus 1. As to the kind of experiment: Binding affinity to HIV1 Gag V362I/V370A mutant assessed as dissociation half life.
The nature of test [11]: Selectivity ratio of EC50 for antiviral activity against HIV1 harbouring T332S/V362I/prR41G mutant to EC50 for antiviral activity wild type HIV1. Format: functional, Human immunodeficiency virus 1.
The test system of test [12] is Human immunodeficiency virus 1. As to the kind of experiment: Binding affinity to HIV1 Gag V370A/deltaT371 mutant assessed as dissociation half life.
Test [13] has as its system Human immunodeficiency virus 1. As to the kind of experiment: Antiviral activity against HIV 1 harbouring V362I/V370 mutant. Format: functional, organism-based.
A short description of test [14]: Selectivity ratio of EC50 for antiviral activity against HIV1 harbouring V362I/V370A mutant to EC50 for antiviral activity against wild type HIV1. Format: functional, Human immunodeficiency virus 1.
Test [15] has as its system Human immunodeficiency virus 1. As to the kind of experiment: Antiviral activity against wild type HIV 1. Format: functional, organism-based.
Test [16] has as its system Human immunodeficiency virus 1. The test can be described thus: Antiviral activity against HIV 1 harbouring A364V mutant. Format: functional, organism-based.
The test system of test [17] is Human immunodeficiency virus 1. As to the kind of experiment: Antiviral activity against HIV1 infected in human assessed as reduction in Plasma viremia by measuring HIV1 RNA at 10 mg/kg after 10 days. Particulars: time 10 day. Format: functional.
In test [18] the test system is Human immunodeficiency virus 1. As to the kind of experiment: Antiviral activity against HIV 1 harbouring R361K/V362I/L363M mutant. Format: functional, organism-based.
A short description of test [19]: Selectivity ratio of EC50 for antiviral activity against HIV1 harbouring R361K/V362I/L363M mutant to EC50 for antiviral activity wild type HIV1. Format: functional, Human immunodeficiency virus 1.
For test [20], the system named is Human immunodeficiency virus 1. As to the kind of experiment: Antiviral activity against HIV1 harbouring T332S/V362I/prR41G mutant. Format: functional, organism-based.
Test [21] in a line: Selectivity ratio of EC50 for antiviral activity against HIV1 harbouring V370A mutant to EC50 for antiviral activity against wild type HIV1. Format: functional, Human immunodeficiency virus 1.
Test [22] can be described thus: Selectivity ratio of EC50 for antiviral activity against HIV1 harbouring A362T/V362I/V370A mutant to EC50 for antiviral activity wild type HIV1. Format: functional, Human immunodeficiency virus 1.
Test [23] concerns Human immunodeficiency virus 1. The test can be described thus: Antiviral activity against HIV1 infected in human assessed as reduction in Plasma viremia by measuring HIV1 RNA at 140 mg/kg after 7 days. Format: functional. As to conditions: time 7 day.
Test [24] relates to Human immunodeficiency virus 1. As to the kind of experiment: Antiviral activity against HIV1 infected in human assessed as reduction in Plasma viremia by measuring HIV1 RNA at 200 mg/kg after 10 days. Format: functional. As to conditions: time 10 day.
A short description of test [25]: Selectivity ratio of EC50 for antiviral activity against HIV1 harbouring A364V mutant to EC50 for antiviral activity wild type HIV1. Format: functional, Human immunodeficiency virus 1.
Test [26] concerns Human immunodeficiency virus 1. As to the kind of experiment: Antiviral activity against HIV1 infected in human assessed as reduction in Plasma viremia by measuring HIV1 RNA at 80 mg/kg after 7 days. Format: functional. Particulars: time 7 day.
Test [27] in a line: Selectivity ratio of EC50 for antiviral activity against HIV1 harbouring deltaV370A mutant to EC50 for antiviral activity against wild type HIV1. Format: functional, Human immunodeficiency virus 1.
The subject of test [28] is Gag-Pol polyprotein (Human immunodeficiency virus type 1 group M subtype B (isolate HXB2)(HIV-1)), P04585 [A364V]. As to the kind of experiment: Binding affinity to HIV1 Gag A364V mutant assessed as dissociation half life. Particulars: Human immunodeficiency virus 1.
The test system of test [29] is Gag-Pol polyprotein (Human immunodeficiency virus type 1 group M subtype B (isolate HXB2)(HIV-1)), P04585 [V362I]. As to the kind of experiment: Binding affinity to HIV1 Gag V362I mutant assessed as dissociation half life. As to conditions: Human immunodeficiency virus 1.

Usually EC50 stands for the concentration at which the effect is half-maximal. On to `C=C(C)[C@@H]1CC[C@]2(NCCN3CCS(=O)(=O)CC3)CC[C@]3(C)[C@H](CC[C@@H]4[C@@]5(C)CC=C(C6=CCC(C(=O)O)CC6)C(C)(C)[C@@H]5CC[C@]43C)[C@@H]12` (stereo partly specified), for which the EC50 in test [1] is 9 nM; in [2] it was 2 nM; in test [3], 0.6 nM; in test [4], 0.7 nM.

`C=C(C)[C@@H]1CC[C@]2(NCCN3CCS(=O)(=O)CC3)CC[C@]3(C)[C@H](CC[C@@H]4[C@@]5(C)CC=C(C6=CC[C@@](CF)(C(=O)O)CC6)C(C)(C)[C@@H]5CC[C@]43C)[C@@H]12` [FIPRAVIRIMAT]: the EC50 was 26 nM in [5]; 3 nM in test [2]; 3 nM in test [13]; 3 nM in test [15]; 274 nM in test [16]; 3 nM in test [18]. Also, the results for the EC50 in test [20] and in test [4] were 7 nM and 2 nM, respectively. Further, the T1/2 was 7.23 h in test [6]; 6.02 h in test [8]; 5.25 h in test [9]; 3.78 h in test [10]; 7.65 h in test [12]; < 1 min in [28]. Moreover, the T1/2 in [29] stood at 4.48 h. For the same compound, the Activity in test [7] is -1.2; in test [17] it was -0.4; in [23], -1.5; in test [24], -2; in [26], -1. The “Ratio EC50” value in [11] came to 2.3; in test [14], 1; in [19] it was 1; in [21] it was 0.7; in test [22], 8.7; in [25], 91. Also, in test [27], the “Ratio EC50” value came out at 1.

On to `C=C(C)[C@@H]1CC[C@]2(NCCN3CCS(=O)(=O)CC3)CC[C@]3(C)[C@H](CC[C@@H]4[C@@]5(C)CC=C(c6ccc(C(=O)O)cc6)C(C)(C)[C@@H]5CC[C@]43C)[C@@H]12` [BMS-955176], for which the EC50 in [5] is > 3000 nM; in [2], 6 nM; in [13], > 3000 nM; in test [15], 5 nM; in [16], > 3000 nM; in test [18], 552 nM. In addition, the EC50 in test [20] was found to be 704 nM; in [4], 6 nM. The T1/2 in test [8] was 0.85 h; in test [9], 0.767 h; in test [10], 0.583 h; in test [12], 0.8 h; in test [28], < 1 min. In addition, the “Ratio EC50” value in test [11] is recorded as 141; in test [14], >600; in test [19], 110; in [21], 1.2; in [22] it was >600; in [25] it was >600. The “Ratio EC50” value in test [27] is given as 1.2.

Regarding `C=C(C)[C@@H]1CC[C@]2(NCCN3CCS(=O)(=O)CC3)CC[C@]3(C)[C@H](CC[C@@H]4[C@@]5(C)CC=C(C6=CC[C@@H](C(=O)O)CC6)C(C)(C)[C@@H]5CC[C@]43C)[C@@H]12`, the EC50 in test [1] is 5 nM; in [2] it was 3 nM; in test [13], 15 nM; in test [3] it was 3 nM; in [20] it was 19 nM.
